Experimental data as given in ChEMBL document CHEMBL1201862, “PubChem BioAssay data set” (2004).
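Dose response: 5 concentrations. Exposure: 48 h. Format: 96-well plates. Endpoint: linear interpolation; highest concentration if not reached. GI50 = concentration required for 50% inhibition of growth.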 Active and inactive are the calls of the source. Rule as the data show it: active = GI50 up to about 1.1 µM and inactive = higher.

Columns and labels:
Assay in all cases: growth of human tumour cells (NCI), 48 h
NCI-H460 = system: NCI-H460
COLO 205 = system: COLO 205
HCC 2998 = system: HCC 2998
NCI-H226 = system: NCI-H226
SF-295 = system: SF-295
U-251 = system: U-251
IGROV-1 = system: IGROV-1
MDA-N = system: MDA-N
MDA-MB-231 = system: MDA-MB-231
RXF 393 = system: RXF 393
OVCAR-5 = system: OVCAR-5
HL-60 = system: HL-60
MDA-MB-435 = system: MDA-MB-435
CAKI-1 = system: CAKI-1
HCT-15 = system: HCT-15
NCI-H522 = system: NCI-H522
OVCAR-3 = system: OVCAR-3
MCF7 = system: MCF7
SNB-19 = system: SNB-19
SNB-75 = system: SNB-75

Structure (SMILES)	GI50 (NCI-H460)	GI50 (COLO 205)	GI50 (HCC 2998)	GI50 (NCI-H226)	GI50 (SF-295)	GI50 (U-251)	GI50 (IGROV-1)	GI50 (MDA-N)	GI50 (MDA-MB-231)	GI50 (RXF 393)	GI50 (OVCAR-5)	GI50 (HL-60)	GI50 (MDA-MB-435)	GI50 (CAKI-1)	GI50 (HCT-15) [µM]	GI50 (NCI-H522)	GI50 (OVCAR-3)	GI50 (MCF7)	GI50 (SNB-19)	GI50 (SNB-75)
COc1ccc2cc(-c3ccc(OC)c(OC)c3)c(=O)oc2c1	> 100 µM (inactive)	> 100 µM (inactive)	> 100 µM (inactive)	> 100 µM (inactive)	53.1 µM (inactive)	57.4 µM (inactive)	> 100 µM (inactive)	> 100 µM (inactive)	48.6 µM (inactive)	21.4 µM (inactive)	> 100 µM (inactive)	> 100 µM (inactive)	> 100 µM (inactive)	> 100 µM (inactive)	> 100	> 100 µM (inactive)	> 100 µM (inactive)	> 100 µM (inactive)	40 µM (inactive)	
C=CCC1(C)CCCN(Cc2ccccc2)C1=O (centres undefined)	> 10 µM (inactive)	> 10 µM (inactive)	> 10 µM (inactive)	> 10 µM (inactive)	> 10 µM (inactive)	> 10 µM (inactive)	0.863 µM (active)	> 10 µM (inactive)	> 10 µM (inactive)	> 10 µM (inactive)	> 10 µM (inactive)	> 10 µM (inactive)	> 10 µM (inactive)	> 10 µM (inactive)	> 10	> 10 µM (inactive)	> 10 µM (inactive)	> 10 µM (inactive)	> 10 µM (inactive)	
COc1ccc(C2C(C#N)=C(S)N(C3OC(CO)C(O)C(O)C3O)C(C)=C2C(C)=O)cc1 (centres undefined)	> 100 µM (inactive)	> 100 µM (inactive)	> 100 µM (inactive)	> 100 µM (inactive)	> 100 µM (inactive)	> 100 µM (inactive)	> 100 µM (inactive)	72.3 µM (inactive)	> 100 µM (inactive)	50 µM (inactive)	> 100 µM (inactive)	58.7 µM (inactive)	> 100 µM (inactive)		> 100	60.4 µM (inactive)	47.3 µM (inactive)	> 100 µM (inactive)	> 100 µM (inactive)	42.7 µM (inactive)
CCCCC1Cc2cc(O)ccc2-c2nc3cc(O)ccc3n21.CCCCC1Cc2cc(O)ccc2-c2nc3ccc(O)cc3n21 (centres undefined)	14.8 µM (inactive)	15.7 µM (inactive)	14.3 µM (inactive)	18.4 µM (inactive)	15.2 µM (inactive)	14.4 µM (inactive)	13 µM (inactive)	14.3 µM (inactive)	13.6 µM (inactive)	19.1 µM (inactive)	16.6 µM (inactive)	19.1 µM (inactive)	11.9 µM (inactive)	23.7 µM (inactive)	11	11.1 µM (inactive)	21.7 µM (inactive)	19.2 µM (inactive)	11 µM (inactive)	
O=C(Nn1c(-c2ccccc2)nc2ccccc2c1=O)c1ccccc1O	41.8 µM (inactive)	67.3 µM (inactive)	70.1 µM (inactive)	38.9 µM (inactive)	63.2 µM (inactive)	44.5 µM (inactive)	32.2 µM (inactive)	66.2 µM (inactive)	53.5 µM (inactive)	28.2 µM (inactive)	49.4 µM (inactive)	27.8 µM (inactive)	49.4 µM (inactive)		29.4	32.9 µM (inactive)	30.3 µM (inactive)	28.1 µM (inactive)	45 µM (inactive)	> 100 µM (inactive)
COc1ccc(NC(=O)NNS(=O)(=O)c2ccc(C)cc2)cc1	> 100 µM (inactive)	> 100 µM (inactive)	> 100 µM (inactive)	> 100 µM (inactive)	> 100 µM (inactive)	> 100 µM (inactive)	> 100 µM (inactive)	32.7 µM (inactive)	> 100 µM (inactive)	> 100 µM (inactive)	> 100 µM (inactive)	> 100 µM (inactive)	30.4 µM (inactive)	> 100 µM (inactive)	> 100	45.1 µM (inactive)		> 100 µM (inactive)	> 100 µM (inactive)	29.4 µM (inactive)
